Measured values from ChEMBL document CHEMBL1201862, “PubChem BioAssay data set” (2004).
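Assay format: 96-well plates, 48-hour exposure. Here, GI50 denotes the concentration required for 50% inhibition of growth.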 Active and inactive are the calls of the source. Cut-off read from the data, not from the text of the source: active = GI50 up to about 1.1 µM and inactive = higher.

What was measured:
Test in all cases: NCI tumour cell line growth inhibition, 48 h
HCT-116 = system: HCT-116
UO-31 = system: UO-31
786-0 = system: 786-0
SNB-19 = system: SNB-19
RPMI-8226 = system: RPMI-8226
SNB-75 = system: SNB-75
SK-OV-3 = system: SK-OV-3
SF-295 = system: SF-295
NCI/ADR-RES = system: NCI/ADR-RES
EKVX = system: EKVX
RXF 393 = system: RXF 393
U-251 = system: U-251
HL-60 = system: HL-60
TK-10 = system: TK-10
A498 = system: A498
NCI-H23 = system: NCI-H23
MOLT-4 = system: MOLT-4
SN12C = system: SN12C
HCC 2998 = system: HCC 2998
OVCAR-8 = system: OVCAR-8

Measured: GI50

COc1ccccc1C(O)[C@@H]1C[C@@H]2[C@H]3CC[C@@](C)([C@@H]2O1)C3(C)C (stereo not given in full)
inactive: HCT-116 20.5 µM | UO-31 17.9 µM | 786-0 17.8 µM | SNB-19 22.8 µM | RPMI-8226 25.2 µM | SNB-75 16.9 µM | SK-OV-3 27.4 µM | SF-295 18.4 µM | NCI/ADR-RES 17.5 µM | EKVX 45.2 µM | RXF 393 17.4 µM | U-251 16.5 µM | HL-60 20 µM | TK-10 21.8 µM | A498 15.4 µM | NCI-H23 19.5 µM | MOLT-4 15.4 µM | SN12C 16.4 µM | HCC 2998 20.8 µM | OVCAR-8 18.2 µM
